Where two headings read alike, the source gives them in different places.
Experiments:
HepG2 = assay: Toxicity assay (MTS/MTT dye), HepG2 cells; conditions: for Cytotoxicity HepG2 IC30: HepG2, three day-incubation (Table 1)
Experimental: (§1) After a three day-incubation for HepG2, or 5 days for human PBM cells, cell viability and mitochondrial activity were measured in a colorimetric assay using the MTS- or MTT dye method (Promega, Madison, Wis.).

HIV-1 LAI (wild type) [1] = assay: HIV-1 RT-assay on supernatant of acutely infected human PBM cells, strain LAI; assay type: cell-based; conditions: 5 days, RT activity reduced by 90%
Experimental: (§2) Human PBM cells (1×10^6 cells/T25 flask) were PHA stimulated for 2 or 3 days, and infected with either a wild type (LAI and xxBRU) or a 3TC-resistant (xxBRU 184V) HIV-1 strain at 100 TCID50, as previously described (27). The culture was kept for 5 days in presence of test compounds at serial 1-log dilutions. Subsequently, human PBM cells were removed from the culture supernatant by centrifugation (10 minutes, 400×g, 4° C.). This clarified supernatant was tested either in the RT-assay, or in the Q-RT-PCR assay.
(§3) Virus particles present in a 1 mL aliquot of culture supernatant were concentrated by high-speed centrifugation (2 hours, 20,000×g, 4° C.). The supernatant was then removed and the virus pellet was dispensed into a 100 μL virus solubilization buffer (VSB: 0.5% Triton X-100; 0.8 M NaCl, 0.5 mM phenylmethylsulfonyl, 20% glycerol, 50 mM Tris.HCl pH 7.8). A 10 μL aliquot of RT-VSB was mixed with 75 μL RT cocktail (60 mM Tris.HCl pH 7.8, 12 mM MgCl2, 6 mM DTT, 6 μg/mL poly (rA)n-oligo (dT)10-12, 1.2 mM dATP, and 80 μCi/mL 3H-TTP) and incubated for 2 hours at 37° C. Subsequently 100 μL of 10% TCA was added, and the total amount of incorporated 3H-TTP was determined.
(§4) HIV-1 present in culture supernatant fluids was quantified by two different methodologies: i) the Q-RT-PCR with read-out in log copies/mL; and ii) the endogenous viral RT assay on cell supernatant with read-out in log counts per minute/mL (CPM/mL). Upon addition of antiviral compounds to the culture media, a dose-related decrease in virus production was observed. Although the two methodologies measured different parameters (viral RNA versus active RT enzyme), results were not markedly different from each other. The HIV-1 Q-RT-PCR results were compared with a previously established cell-based antiviral drug evaluation assay (endogenous HIV-1 RT polymerization activity in cell supematant)(27).

HIV-1 xxBRU (wild type) [2] = assay: HIV-1 RT-assay on supernatant of acutely infected human PBM cells, strain xxBRU; assay type: cell-based; conditions: 5 days, RT activity reduced by 90%
Experimental: as §2, §3, §4

[3] = system: 3TC-resistant (xxBRU 184V) HIV-1; assay: HIV-1 RT-assay on supernatant of acutely infected human PBM cells, strain xxBRU 184V; assay type: cell-based; conditions: for EC90: human PBM cells, 5 days, RT activity reduced by 90%, read-out: RT-Assay 184V EC90
Experimental: as §2, §3, §4

HIV-1 LAI (wild type) [4] = assay: HIV-1 Q-RT-PCR assay in human PBM cells, strain LAI; assay type: cell-based; conditions: 5 days, viral RNA reduced by 90%
Experimental: as §2
(§5) Viral RNA present in the culture supernatant was prepared using commercially available columns (QIAamp Viral RNA mini Kit, Qiagen, Valencia, Calif.). Viral RNA was detected in real-time by monitoring increases in fluorescence signal that resulted from degradation of a quenched fluorescent probe molecule following the hybridization of the probe to the arnplified viral DNA (TaqMan 7700 chemistry, Applied Biosystems, Foster City, Calif.). The TaqMan probe and primers were designed using the Primer Express software (Applied Biosystems); they cover highly conserved sequences complementary to an 81 base pair long fragment from the HIV-1 RT gene between codon 230 and 257 of the group MHIV-1 genome; • probe 5′-6FAM-[…]-TAMRA-3′ (Sequence 1) • sense primer: 5′-[…]-3′ (Sequence 2); and • antisense primer 5′-[…]-3′ (Sequence 3).
(§6) A total of 5 μL RNA was RT-amplified using reagents and conditions as described by the manufacturer (Applied Biosystems). […] Copy numbers were calibrated using the Roche Amplicor HIV-1 Monitor test™ (Roche Diagnostics, Branchburg, N.J.) on a 1-log dilution series of a clinical HIV-1 genotype B isolate (attenuated in vitro to obtain a high viral load). The 10-6 diluted sample became positive at threshold cycle (Ct=PCR cycle threshold where a sample becomes detectable)=35.52, which corresponded to 1,410 copies/mL in the Roche monitor HIV-1 version II assay. When validated over a dynamic range of 3 logs of virus, there was excellent correlation (r2˜1) between the two methodologies. […] Therefore, the currently designed primer and probe set allowed reliable quantification of both clinical samples and HIV-1 in vitro preparations.
as §4

HIV-1 xxBRU (wild type) [5] = assay: HIV-1 Q-RT-PCR assay in human PBM cells, strain xxBRU; assay type: cell-based; conditions: 5 days, viral RNA reduced by 90%
Experimental: as §2, §5, §6, §4

[6] = system: 3TC-resistant (xxBRU 184V) HIV-1; assay: HIV-1 Q-RT-PCR assay in human PBM cells, strain xxBRU 184V; assay type: cell-based; conditions: for EC90: human PBM cells, 5 days, viral RNA reduced by 90%, read-out: Q-RT-PCR HIV-1 assay 184V EC90
Experimental: as §2, §5, §6, §4

HBV = HBV Q-PCR assay in HepAD38 (AD38) cells; assay type: cell-based, hepatitis B virus; conditions: AD38 cells, 5-day incubation, HBV DNA in supernatant, read-out: HBV assay Q-PCR EC90
Experimental: The HepAD38 cell line replicates HBV under conditions that can be regulated with tetracycline (12, 15). In the presence of this drug, the cell supernatant is virtually free of viral DNA, but upon the removal of tetracycline from the culture medium, these cells secrete virus-like particle into the supernatant (12). HepAD38 cells were seeded at 5×10^4 cells/well in a 96-well plate in seeding medium (DMEM/F12+10% FBS, 50 μg/mL penicillin, 50 μg/mL streptomycin, 100 μg/mL kanamycin, 400 μg/mL G418, and 0.3 μg/mL tetracycline) and incubated for 2 days at 37° C. in a 5% CO2 humid atmosphere. The seeding media was removed, and cells were washed 3 times with PBS. Cells were then incubated with 200 μL assay medium (DMEM/F12+10% FBS+P/S/K) containing either no compound, test compound, or control drugs at 10 μM. After a 5-day incubation, the cell supernatant was collected and stored at −70° C. until HBV DNA was quantified. HBV DNA was extracted from supernatant using QiaAmp DNA blood Mini kit (Qiagen) and nucleic acids eluted in 200 μL. Viral DNA was detected in Q-PCR. The TaqMan probe and primers were designed using the Primer Express software (Applied Biosystems) and cover highly conserved sequences complementary to the DNA sequences present in HBsAg (24). A total of 5 μL DNA was amplified using reagents and conditions as described by the manufacturer (Applied Biosystems). […]

BVDV (strain NADL) = assay: BVDV Q-RT-PCR assay in MDBK cells; assay type: cell-based, bovine viral diarrhea virus; conditions: MDBK cells, 24 hour incubation, viral RNA in supernatant, read-out: BVDV assay Q-PCR EC90
Experimental: Madin-Darby Bovine Kidney (MDBK) cells were maintained in DMEM/F12 supplemented with 10% heat-inactivated horse serum at 37° C. in a humidified, 5% CO2 atmosphere. Cells were seeded in 96-well plates at 5×10^3 cells/wcll and incubated for 1 hour. BVDV (strain NADL) was used to infect the cells in monolayer at MOI 0.02. After 45 minutes of infection, the viral inoculum was removed and the cells were washed twice. Media or media containing test compound was added to these cells, followed by 24 hour incubation. Cell supernatant fluids were collected, clarified by centrifugation (2 minutes, 3,000 g, room temperature) and viral RNA was prepared (QIAamp Viral RNA mini Kit, Qiagen). Viral RNA was detected in real-time RT-PCR.

[7] = system: mitochondrial cytochrome C oxidase subunit II (COXII) gene; assay type: cell-based, human; conditions: HepG2, 10 μM, 7 days
Source text: The Q-RT-PCR technology was also used to evaluate potential mitochondrial γ-DNA polymerase inhibition by the compounds of the present invention in relevant human cells. […] Since active nucleoside compounds in the triphosphate form lack a 3′-OH, thereby stopping virus replication by chain termination, there is a concern that these nucleoside analogues are also substrates for the human DNA polymerase γ, resulting in inhibition of mitochondrial DNA replication and subsequently toxic side effects (11, 19). In an attempt to provide direct quantifiable data on mitochondrial DNA levels intracellular, a Q-PCR technology was designed and relative quantification of COXII DNA levels were calculated using the comparative Ct method. […] Also, in agreement with previous observations, no changes in normalized mitochondrial DNA levels were observed after FIAU and D4T treatment (6, 8, 23).
(§7) Low passage number HepG2 cells, obtained from American Tissue Culture Collection (ATCC, Manassas, Va.) were seeded at 5,000 cells/well in collagen-coated 96-well plates. Test compounds were added to the media to obtain a final concentration of 10 μM. On culture day 7, cellular nucleic acids were prepared by using commercially available columns (RNeasy 96 kit, Qiagen). […] The mitochondrial cytochrome C oxidase subunit II (COXII) gene and the β-actin or rRNA gene were amplified from 5 μL with a multiplex Q-PCR protocol using the suitable primers and probes for both target and reference (designed using the Primer Express software, Applied Biosystems); • for COXII. • sense primer 5′-[…]-3′ (Sequence 7); • probe 5′-TET-[…]-TAMRA-3′ (Sequence 8); and • antisense probe 5′-[…]-3′ (Sequence 9); • for exon 3 of β-actin (GenBank E01094): • sense primer 5′-[…]-3′ (Sequence 10); • probe 5′-6FAM-[…]-TAMRA-3′ (Sequnece 11); and • antisense probe 5′-[…]-3′ (Sequence 12).
(§8) The rRNA gene primers and probes were purchased from Applied Biosystems. Standard curves using 1-log diluted total HepG2 DNA were linear over more than 5 logs. In addition, efficiencies of target (COXII DNA) and reference (β-actin DNA or rRNA) amplification were approximately equal, because the slope of the ΔCt line (Ct β-actin minus Ct mitochondrial) was less than 0.1 (not shown). Since equal amplification efficiencies were obtained for both genes, the comparative cycle threshold (Ct) method was used to investigate potential inhibition of the mitochondrial DNA polymerase γ. The comparative Ct method uses arithmetic formulas in which the amount of target (COXII gene) is normalized to an endogenous reference (β-actin gene or rRNA gene) and is relative to a calibrator (no drug control at day 7). The arithmetic formula for this approach is given by 2-ΔΔCt (User bulletin # 2, Applied Biosystems).
(§9) In order to study the consequences of possible inhibitory effects of these compounds on host DNA polymerases, nuclear and rnitochondrial DNA levels were quantified and compared to no-treatment controls. Cells were incubated for 7 days with 10 μM of each compound, followed by total nucleic acid extractions and multiplex Q-PCR of the rRNA gene and the mitochondrial COXII gene. Nucleic acids from cells exposed to the control compounds were also amplified in multiplex for mitDNA and the β-actin gene. The results are presented in Table 4 using the comparative Ct method.

β-actin gene = assay type: cell-based, human; conditions: human, 7 days, 10 μM
Experimental: as §7, §8, §9

human PBM cells = assay: Toxicity assay (MTS/MTT dye), human PBM cells; conditions: read-out: Cytotoxicity PBM IC50; human PBM cells, 5 days incubation
Experimental: as §1

in vitro [8] = conditions: human
Experimental: as §1

in vitro [9] = conditions: human; remark: listed apart in the source
Experimental: as §1

| Compound | Cytotoxicity HepG2 IC30 (HepG2) | EC90 (HIV-1 LAI (wild type) [1]) | EC90 (HIV-1 xxBRU (wild type) [2]) | RT-Assay FI, fold increase (EC90 HIV-1184V/EC90 HIV-1xxBRU) [3] | EC90 [3] | EC90 (HIV-1 LAI (wild type) [4]) | EC90 (HIV-1 xxBRU (wild type) [5]) | Q-RT-PCR HIV-1 assay FI, fold increase (EC90 HIV-1184V/EC90 HIV-1xxBRU) [6] | EC90 [6] | EC90 (HBV) | EC90 (BVDV (strain NADL)) | also measured |
| --- | --- | --- | --- | --- | --- | --- | --- | --- | --- | --- | --- | --- |
| β-L-2′,3′-didehydro-2′,3.′-dideoxy-3′-fluoro-5-fluoro cytidine [Compound 23-F] | >100 µM | 0.12 µM | 0.14 µM | 479 | 67 µM | 0.09 µM | 0.16 µM | 333 | 53 µM | 68 µM | > 200 µM |  |
| β-D-2′,3′-didehydro-2′,3.′-dideoxy-3′-fluoro-5-fluoro cytidine [Compound 10-F] | >100 µM | 34.5 µM | 37.5 µM | 13.2 | 494 µM | 36.3 µM | 34.8 µM |  | > 100 µM | > 100 µM | > 200 µM |  |
| Nc1nc2c(ncn2COCCO)c(=O)[nH]1 [ACV, 9-(2-hydroxyethoxymethyl)guanine] |  |  |  |  |  |  |  |  |  |  |  | COXIINβ-actin DNA (range) relative to control ([7]; COXII DNA normalized to β-actin DNA, 2-ΔΔCt): 1.45 (1.34-1.52); Average ΔCt ± SD COXII DNA [7]: −0.37 ± 0.08; Average ΔΔCt ± SD COXII-β-actin [7]: −0.54 ± 0.06; Average ΔCt ± SD β-actin DNA (β-actin gene): 0.17 ± 0.01 |
| Nc1nc(=O)n([C@H]2C=C[C@@H](CO)O2)cc1F [D-D4FC, β-D-2′,3′-didehydro-2′3′-dideoxy-5-fluorocytidine, reference compound] | >100 µM | 0.18 µM | 0.08 µM | 1.9 | 0.15 µM | 0.38 µM | 0.22 µM | 0.97 | 0.21 µM |  | > 200 µM | IC50 (human PBM cells): 80 µM; IC50 (HepG2; read-out: Cytotoxicity HepG2 IC50, HepG2, three day-incubation (Table 3)): > 100 µM |
| NC(=O)c1ncn([C@@H]2O[C@H](CO)[C@@H](O)[C@H]2O)n1 [Ribavirin, 1-β-D-ribofuranosyl-1H-,1,2,4-triazole-3-carboxamide, reference compound] |  |  |  |  |  |  |  |  |  |  |  | IC50 at 5 days (in vitro [8]): > 100 µM; IC50 at 3 days (in vitro [9]): 90 µM; EC90 (HBV; Hepatitis B virus, HePAD38, 120 h): > 100 µM; EC90 (BVDV (strain NADL); Bovine viral diarrhea virus isolates and strains): 5 µM |

— patent publication US6949522B2, “β-2′- or 3′-halonucleosides” (Pharmasset, Inc., priority 2001, dated 2005)
